Patent US8658661B2, “Oxadiazole inhibitors of leukotriene production” (Boehringer Ingelheim International GmbH, priority 2010, dated 2014)

Key:
[1] = target: T1, recombinant human FLAP protein (Homo sapiens, UniProt P20292); experiment: FLAP binding assay (SPA, displacement of [125I]L-691,831); details: membranes of sf9 cells expressing recombinant human FLAP; [125I]L-691,831 probe; read-out: FLAP binding IC50
T1 construct: made in house; host or cells: Sf9 insect cells (100,000×g membrane pellet used)
T1 sequence (P20292 1-161): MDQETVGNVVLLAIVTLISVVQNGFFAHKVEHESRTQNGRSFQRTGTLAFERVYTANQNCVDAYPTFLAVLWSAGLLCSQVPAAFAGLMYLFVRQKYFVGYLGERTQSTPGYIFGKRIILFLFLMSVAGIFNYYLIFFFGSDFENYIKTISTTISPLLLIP
Procedure, shortened: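 Membranes from sf9 cells expressing human FLAP in pH 7.5 Tris buffer (MgCl2, EDTA, PMSF). Non-specific binding defined with 10 μM cold L-691,831.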

[2] = tested on: synthesis of LTB4 in human whole blood; experiment: Human whole blood assay (inhibition of LTB4 synthesis, calcimycin stimulated); format: cell-based; details: heparinized human whole blood, calcimycin 20 μM, plasma LTB4
Procedure, shortened: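 Steps: compound plus heparinized human whole blood, 15 min at 37° C; add calcimycin to 20 μM final; incubate another 30 min at 37° C; centrifuge at low speed and collect plasma; measure LTB4 with a homogeneous time-resolved fluorescence immunoassay.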

IC50 [1]	IC50 [2]	SMILES
3.5 nM	21 nM	C[C@@](c1ccc(-c2ccc(N)nc2)cc1)(c1noc(-c2cnn(C3COC3)c2)n1)C1CC1 [Example 263, 5-(4-{(R)-1-Cyclopropyl-1-[5-(1-oxetan-3-yl-1H-pyrazol-4-yl)-[1,2,4]oxadiazol-3-yl]-ethyl}-phenyl)-pyridin-2-ylamine]
64 nM	> 5000 nM	CN(C)C(=O)Cn1cc(-c2nc(C(C)(c3ccc(-c4ccc(F)nc4N)cc3)C3CC3)no2)cn1 (stereo not drawn) [Example 277, 2-[4-(3-{1-[4-(2-Amino-6-fluoro-pyridin-3-yl)-phenyl]-1-cyclopropyl-ethyl}-[1,2,4]oxadiazol-5-yl)-pyrazol-1-yl]-N,N-dimethyl-acetamide]
2.3 nM	100 nM	CC(O)CNc1ccc(-c2nc(C(C)(c3ccc(-c4cnc(N)nc4)cc3)C3CC3)no2)cn1 (stereo not drawn) [Example 40, 1-{[5-(3-{1-[4-(2-aminopyrimidin-5-yl)phenyl]-1-cyclopropylethyl}-1,2,4-oxadiazol-5-yl)pyridin-2-yl]amino}propan-2-ol]
2.4 nM	31 nM	CC(C)(O)Cn1cc(-c2nc([C@@](C)(c3ccc(-c4ccc(N)nc4)cc3)C3CC3)no2)cn1 [Example 173, 1-[4-(3-{(R)-1-[4-(6-Amino-pyridin-3-yl)-phenyl]-1-cyclopropyl-ethyl}-[1,2,4]oxadiazol-5-yl)-pyrazol-1-yl]-2-methyl-propan-2-ol]
1.1 nM	70 nM	CC(C)C(C)(c1ccc(-c2cnc(N)c(CO)c2)cc1)c1noc(-c2cccnc2)n1 (stereo not drawn) [Example 6, [2-amino-5-(4-{3-methyl-2-[5-(pyridin-3-yl)-1,2,4-oxadiazol-3-yl]butan-2-yl}phenyl)pyridin-3-yl]methanol]
2.2 nM	97 nM	COCCNc1ccc(-c2nc(C(C)(c3ccc(-c4cnc(N)nc4)cc3)C3CC3)no2)cn1 (stereo not drawn) [Example 38, 5-{4-[1-cyclopropyl-1-(5-{6-[(2-methoxyethyl)amino]pyridin-3-yl}-1,2,4-oxadiazol-3-yl)ethyl]phenyl}pyrimidin-2-amine]
1.6 nM	51 nM	C[C@@](c1ccc(-c2cnc(N)nc2)cc1)(c1noc(-c2cnn(C3COC3)c2)n1)C1CCC1 [Example 102, 5-{4-[(1R)-1-cyclobutyl-1-{5-[1-(oxetan-3-yl)-1H-pyrazol-4-yl]-1,2,4-oxadiazol-3-yl}ethyl]phenyl}pyrimidin-2-amine]
12 nM	86 nM	CC(C)C(C)(c1ccc(-c2cnc(N)nc2)cc1)c1noc(N2CCC(CCO)CC2)n1 (stereo not drawn) [Example 212, 2-[1-(3-{1-[4-(2-Amino-pyrimidin-5-yl)-phenyl]-1,2-dimethyl-propyl}-[1,2,4]oxadiazol-5-yl)-piperidin-4-yl]-ethanol]
26 nM	470 nM	CC(C)C(C)(c1ccc(-c2cnc(N)nc2)cc1)c1noc(NC2CCC(O)CC2)n1 (stereo not drawn) [Example 237, 4-(3-{1-[4-(2-Amino-pyrimidin-5-yl)-phenyl]-1,2-dimethyl-propyl}-[1,2,4]oxadiazol-5-ylamino)-cyclohexanol]
94 nM	900 nM	CC(C)C(C)(c1ccc(-c2cnc(N)nc2)cc1)c1noc(N(C)CCN(C)C)n1 (stereo not drawn) [Example 260, N-(3-{1-[4-(2-Amino-pyrimidin-5-yl)-phenyl]-1,2-dimethyl-propyl}-[1,2,4]oxadiazol-5-yl)-N,N′,N′-trimethyl-ethane-1,2-diamine]
2.9 nM	210 nM	CC(C)C(C)(c1ccc(-c2cnc(N)nc2)cc1)c1noc(-c2ccc(=O)[nH]c2)n1 (stereo not drawn) [Example 9, 5-(3-{2-[4-(2-aminopyrimidin-5-yl)phenyl]-3-methylbutan-2-yl}-1,2,4-oxadiazol-5-yl)pyridin-2(1H)-one]

SMILES	IC50 [1]	IC50 [2]
CC(C)(O)Cn1cc(-c2nc([C@@](C)(c3ccc(-c4cnc(N)nc4)cc3)C3CC3)no2)cn1 [Example 174, 1-[4-(3-{(R)-1-[4-(2-Amino-pyrimidin-5-yl)-phenyl]-1-cyclopropyl-ethyl}-[1,2,4]oxadiazol-5-yl)-pyrazol-1-yl]-2-methyl-propan-2-ol]	1.2 nM	19 nM
